According to paper PMC11968843, “Sulphostin-inspired N-phosphonopiperidones as selective covalent DPP8 and DPP9 inhibitors” (Nature Communications, 2025):
Several values for one entry are separate records, joined by “and”; a condition that tells them apart may be missing. Equal values may be shown once. Read-outs that look alike come from different tables or passages of the source.

Experiments:
Assay type in all cases: biochemical
[1] = biological target: T1, DPP9 (Homo sapiens, UniProt Q86TI2); assay: biochemical; design: purchased Proteros Biostructures GmbH, Germany; conditions: for DPP9 activity [%]: replicates
Procedure: (§1) Enzyme activity of DPP4, DPP8, DPP9 (Proteros Biostructures GmbH, Germany) and PREP (Sigma Aldrich, USA) was determined by measuring the initial velocity of AMC release from the fluorogenic substrate GP-AMC (Sigma Aldrich, USA) using a Tecan Spark® 10 M multimode microplate reader (Tecan Group Ltd., Switzerland) in activity buffer (20 mM HEPES/KOH pH 7.3, 110 mM potassium acetate, 2 mM Mg acetate, 0.5 mM EGTA, 0.02% Tween 20, supplemented with 1 mM DTT) and a final volume of 20 μL for maximal 60 min at 30 °C. Prior to activity measurement, 10 nM enzyme was incubated for 45 min at 30 °C and gentle shaking with the inhibitor compounds in concentrations ranging from 0 to 100 μM. The compounds were dissolved in DMSO and diluted in activity buffer (final DMSO concentration: 1%). […] IC50 values were calculated using Graph-Pad Prism v10.2.3 using the equation: [Inhibitor] vs. response—Variable slope (four parameters). All measurements were performed in triplicates and error bars represent standard errors of the fit.

[2] = biological target: T2, DPP8 (Homo sapiens, UniProt Q6V1X1); assay: Time-dependent DPP8 inhibition kinetics (kobs, KI, kinact, kapp)
T2 construct: purchased Proteros Biostructures GmbH, Germany
Procedure: (§2) To calculate the reaction rate of covalent bond formation between DPP proteins and inhibitor, kinact, KI and kapp was determined as previously described[30],[51]. Therefore, 250 µM GP-AMC was added simultaneously with a serial dilution of the inhibitor to 10 nM enzyme. Enzyme activity was measured for a maximum of 120 min at 30 °C, and fluorescence intensities were then plotted against time. Data was fitted to the following equation: Y=(vi/kobs)*(1−exp(−kobs*X)) using Graph-Pad Prism v10.2.3. The obtained pseudo-first-order rate constant was used to determine the maximum enzyme inhibition rate (kinact) and binding affinity (KI) by fitting the plot of kobs against inhibitor concentration to the following equation: Y=kinact/1+(KI/[I]) . The efficiency of covalent bond formation (kapp) was calculated by the ratio of kinact/KI. All measurements were performed in triplicates and error bars represent standard errors of the fit.

[3] = biological target: T3, DPP4 (Homo sapiens, UniProt P27487)
T3 construct: purchased Proteros Biostructures GmbH, Germany
Procedure: as §2, with “Therefore, 250 µM GP-AMC was added simultaneously with a serial dilution of the inhibitor to 10 nM enzyme.” left out

[4] = biological target: T1, DPP9; assay: Time-dependent DPP9 inhibition kinetics (kobs, KI, kinact, kapp); design: purchased Proteros Biostructures GmbH, Germany
Procedure: as §2

[5] = biological target: T3, DPP4; assay: biochemical; conditions: for DPP4 activity [%]: replicates
Procedure: as §1

[6] = biological target: T2, DPP8; assay: biochemical
Procedure: as §1

[7] = irreversible inhibition, fit of kobs vs inhibitor concentration

T3 sequence (P27487 whole entry): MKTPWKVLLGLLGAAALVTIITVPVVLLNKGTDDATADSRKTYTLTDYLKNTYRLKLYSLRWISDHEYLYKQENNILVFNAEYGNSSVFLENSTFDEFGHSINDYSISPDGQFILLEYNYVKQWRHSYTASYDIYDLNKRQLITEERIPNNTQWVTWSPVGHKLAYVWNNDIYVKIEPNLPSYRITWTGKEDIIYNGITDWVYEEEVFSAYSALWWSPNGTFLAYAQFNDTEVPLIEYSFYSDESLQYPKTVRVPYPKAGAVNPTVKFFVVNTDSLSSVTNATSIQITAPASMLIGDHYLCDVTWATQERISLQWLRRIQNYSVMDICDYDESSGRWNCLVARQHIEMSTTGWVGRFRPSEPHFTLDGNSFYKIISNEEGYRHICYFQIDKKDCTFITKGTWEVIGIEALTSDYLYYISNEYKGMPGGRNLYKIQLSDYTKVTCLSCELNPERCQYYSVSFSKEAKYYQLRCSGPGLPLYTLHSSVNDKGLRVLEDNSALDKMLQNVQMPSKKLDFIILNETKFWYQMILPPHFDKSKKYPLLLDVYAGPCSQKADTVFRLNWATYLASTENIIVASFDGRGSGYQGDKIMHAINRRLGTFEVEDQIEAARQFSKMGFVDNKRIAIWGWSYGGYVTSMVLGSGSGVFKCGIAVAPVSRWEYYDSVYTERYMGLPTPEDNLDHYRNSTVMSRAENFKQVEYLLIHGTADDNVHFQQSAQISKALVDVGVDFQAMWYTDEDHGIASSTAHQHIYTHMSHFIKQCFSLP
T2 sequence (Q6V1X1 whole entry): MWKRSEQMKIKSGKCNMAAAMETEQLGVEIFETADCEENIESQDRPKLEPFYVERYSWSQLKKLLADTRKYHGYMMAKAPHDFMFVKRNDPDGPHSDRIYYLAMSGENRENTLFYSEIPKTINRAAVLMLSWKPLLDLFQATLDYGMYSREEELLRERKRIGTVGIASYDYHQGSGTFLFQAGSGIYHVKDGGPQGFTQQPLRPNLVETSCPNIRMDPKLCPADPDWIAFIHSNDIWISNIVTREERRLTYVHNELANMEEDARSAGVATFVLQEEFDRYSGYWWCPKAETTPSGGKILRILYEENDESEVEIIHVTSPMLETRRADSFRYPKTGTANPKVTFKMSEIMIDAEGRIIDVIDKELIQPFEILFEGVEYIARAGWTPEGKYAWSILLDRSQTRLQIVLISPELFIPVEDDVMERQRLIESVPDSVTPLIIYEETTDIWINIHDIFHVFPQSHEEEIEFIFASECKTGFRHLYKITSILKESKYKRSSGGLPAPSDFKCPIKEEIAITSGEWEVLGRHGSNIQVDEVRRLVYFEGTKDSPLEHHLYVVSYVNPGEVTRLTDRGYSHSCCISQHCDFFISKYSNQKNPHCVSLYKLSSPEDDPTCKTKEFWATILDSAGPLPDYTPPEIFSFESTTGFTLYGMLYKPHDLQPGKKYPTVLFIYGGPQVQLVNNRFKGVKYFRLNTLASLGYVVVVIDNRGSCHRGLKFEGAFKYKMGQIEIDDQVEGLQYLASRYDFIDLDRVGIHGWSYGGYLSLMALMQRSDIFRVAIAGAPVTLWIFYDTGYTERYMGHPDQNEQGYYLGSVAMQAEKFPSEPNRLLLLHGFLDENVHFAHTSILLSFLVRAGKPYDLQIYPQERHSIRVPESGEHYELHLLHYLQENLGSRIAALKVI
T1 sequence (Q86TI2 whole entry): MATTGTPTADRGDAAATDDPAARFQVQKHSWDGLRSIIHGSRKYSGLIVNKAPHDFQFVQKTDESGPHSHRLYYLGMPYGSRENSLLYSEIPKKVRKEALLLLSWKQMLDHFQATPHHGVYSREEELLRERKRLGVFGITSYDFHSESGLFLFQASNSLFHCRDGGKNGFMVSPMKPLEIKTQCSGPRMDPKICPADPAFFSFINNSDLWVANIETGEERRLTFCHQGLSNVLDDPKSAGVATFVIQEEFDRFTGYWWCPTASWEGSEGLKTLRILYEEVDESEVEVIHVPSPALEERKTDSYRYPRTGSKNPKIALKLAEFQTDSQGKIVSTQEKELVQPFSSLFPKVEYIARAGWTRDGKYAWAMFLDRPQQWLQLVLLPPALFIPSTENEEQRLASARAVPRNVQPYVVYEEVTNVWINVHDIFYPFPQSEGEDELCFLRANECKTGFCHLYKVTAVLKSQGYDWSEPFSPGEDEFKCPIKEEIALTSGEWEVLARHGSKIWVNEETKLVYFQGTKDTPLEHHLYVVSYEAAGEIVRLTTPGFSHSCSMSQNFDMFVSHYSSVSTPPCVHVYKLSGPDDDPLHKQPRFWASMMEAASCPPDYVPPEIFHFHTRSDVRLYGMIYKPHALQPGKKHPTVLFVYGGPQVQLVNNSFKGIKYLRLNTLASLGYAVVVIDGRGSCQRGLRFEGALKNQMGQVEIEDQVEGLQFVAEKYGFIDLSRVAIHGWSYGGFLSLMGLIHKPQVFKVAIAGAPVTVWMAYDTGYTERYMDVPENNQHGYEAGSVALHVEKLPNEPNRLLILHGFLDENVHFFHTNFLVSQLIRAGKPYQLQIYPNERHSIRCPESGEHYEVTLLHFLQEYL

CCCCCc1ccc(SCCP(=O)(OCC)N2CCC[C@H](N)C2=O)cc1.O=C(O)C(F)(F)F (stereo partly drawn) [Compound 16]
IC50 ([1]; GP-AMC 250 µM, 10 nM enzyme, 45 min pre-incubation at 30 °C, read-out: IC50 DPP9): 298 ± 21 nM
DPP9 activity [%] ([1]; c 15.625 nM): 90.8881% and 85.3617% and 82.8729%
DPP9 activity [%] ([1]; c 31.25 nM): 91.5419% and 83.379% and 89.0951%
DPP9 activity [%] ([1]; c 62.5 nM): 100.148% and 96.4776% and 87.1335%
DPP9 activity [%] ([1]; c 156.25 nM): 75.5857% and 64.6658% and 62.3826%
DPP9 activity [%] ([1]; c 250 nM): 60.7045% and 50.2004% and 47.0576%
DPP9 activity [%] ([1]; c 312.5 nM): 47.5512% and 45.1489% and 49.4375%
DPP9 activity [%] ([1]; c 500 nM): 25.3111% and 25.3533% and 24.7205%
DPP9 activity [%] ([1]; c 625 nM): 28.2131% and 30.5361% and 23.7856%
DPP9 activity [%] ([1]; c 1000 nM): 10.0823% and 10.3775% and 12.2759%
DPP9 activity [%] ([1]; c 2500 nM): 5.122% and 5.281% and 6.135%
DPP9 activity [%] ([1]; c 5000 nM): 3.4348% and 3.693% and 4.11%
DPP9 activity [%] ([1]; c 10000 nM): 2.0053% and 1.966% and 1.707%
kobs DPP8 ([2]; c 0.003125 µM): 7.927e-05 s⁻¹
kobs DPP8 ([2]; c 0.025 µM): 0.0001486 s⁻¹
kinact DPP8 [2, 7]: 0.00018 s⁻¹
KI (inactivation) ([2]; irreversible inhibition, fit of kobs vs inhibitor concentration, read-out: KI DPP8): 4e-09 ± 2e-09 M
KI (inactivation) ([2]; source data, read-out: KI [M] best fit DPP8): 3.53e-09 M
kobs DPP4 ([3]; c 250 µM): 0.003317 s⁻¹
kobs DPP4 ([3]; c 1000 µM): 0.006797 s⁻¹
kinact DPP4 [3, 7]: 0.01027 s⁻¹
kapp DPP4 ([3]; ratio kinact/KI): 20 M⁻¹ s⁻¹
KI (inactivation) ([3]; source data, read-out: KI [M] best fit DPP4): 0.000512 M
kobs DPP9 ([4]; c 0.0625 µM): 0.0001274 s⁻¹
kobs DPP9 ([4]; c 0.25 µM): 0.0002545 s⁻¹
kobs DPP9 ([4]; c 1 µM): 0.0004155 s⁻¹
kinact DPP9 [4, 7]: 0.0005 ± 0.00007 s⁻¹
KI (inactivation) ([4]; irreversible inhibition, fit of kobs vs inhibitor concentration, read-out: KI DPP9): 2.16e-07 ± 9e-08 M
KI (inactivation) ([4]; source data, read-out: KI [M] best fit DPP9): 2.16e-07 M
IC50 ([5]; GP-AMC 250 µM, 10 nM enzyme, 45 min pre-incubation at 30 °C, read-out: IC50 DPP4): 16200 nM
DPP4 activity [%] ([5]; c 15.625 nM): 93.2714% and 107.175% and 106.746%
DPP4 activity [%] ([5]; c 31.25 nM): 98.0992% and 97.1086% and 101.856%
DPP4 activity [%] ([5]; c 62.5 nM): 102.891% and 92.9769% and 100.41%
DPP4 activity [%] ([5]; c 250 nM): 99.4378% and 98.9828% and 107.906%
DPP4 activity [%] ([5]; c 500 nM): 104.087% and 100.437% and 100.482%
DPP4 activity [%] ([5]; c 1000 nM): 94.3422% and 97.3674% and 95.7968%
DPP4 activity [%] ([5]; c 1562.5 nM): 95.896% and 97.1752% and 96.7627%
DPP4 activity [%] ([5]; c 3125 nM): 92.5869% and 89.2118% and 84.6321%
DPP4 activity [%] ([5]; c 6250 nM): 85.4573% and 71.7259% and 79.6149%
DPP4 activity [%] ([5]; c 25000 nM): 32.8097% and 29.6905% and 29.938%
DPP4 activity [%] ([5]; c 50000 nM): 6.082% and 4.679% and 4.407%
DPP4 activity [%] ([5]; c 100000 nM): 0.3548% and 1.386% and 0.7592%
IC50 ([6]; GP-AMC 250 µM, 10 nM enzyme, 45 min pre-incubation at 30 °C, read-out: IC50 DPP8): 14 ± 1 nM
DPP8 activity [%] ([6]; c 15.625 nM, replicates): 42.4788% and 41.4194% and 46.9279%
DPP8 activity [%] ([6]; c 25 nM, replicates): 28.7129% and 21.6298% and 23.9147%
DPP8 activity [%] ([6]; c 31.25 nM, replicates): 25% and 29.6611% and 26.8008%
DPP8 activity [%] ([6]; c 50 nM, replicates): 11.5004% and 14.9276% and 11.5003%
DPP8 activity [%] ([6]; c 62.5 nM, replicates): 11.5466% and 15.9958% and 12.9237%
DPP8 activity [%] ([6]; c 100 nM, replicates): 5.331% and 3.808% and 3.884%
DPP8 activity [%] ([6]; c 250 nM, replicates): 4.449% (2×) and 5.085%
DPP8 activity [%] ([6]; c 500 nM, replicates): 3.39% and 4.449% and 3.1779%
DPP8 activity [%] ([6]; c 1000 nM, replicates): 3.496% and 1.907% and 2.6483%
DPP8 activity [%] ([6]; c = 1.5625 nM inhibitor, individual replicates): 85.6817% and 91.6222% and 85.0724%
DPP8 activity [%] ([6]; c = 3.125 nM inhibitor, individual replicates): 102.513% and 82.8637% and 92.1555%
DPP8 activity [%] ([6]; c = 6.25 nM inhibitor, individual replicates): 73.0388% and 69.9924% and 75.3236%
DPP8 vs. DPP9 selectivity ([6]; from IC50 values): ~ 21 fold
selectivity of DPP8 inhibition over DPP4 ([6]; from IC50 values): ~ 1154 fold
